Measured values published in PubChem BioAssay AID2060625 (Molecular Pharmacology Branch, DTP, NCI, 2025).
pIC50: −log10 of the molar value.

Tested on: 186277-243-T-J2-PDC spheroids with HUVEC/MSC, viability
Test: Anticancer human tumor 186277-243-T-J2-PDC patient-derived colon adenocarcinoma cell line growth inhibition [CLK]
Details: for pIC50: curve of first compound; for viability, T/C: stronger effect = lower value; active = viability on the fitted dose curve at most 10% of control; inactive = the rest
Outline: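 Patient-derived tumor cells grown as complex spheroids with HUVEC endothelial cells and mesenchymal stem cells, treated with drug combinations. Concentrations descend in half-log steps from near clinical Cmax, or from 10 microM if Cmax unknown.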

[1] = second compound 0.0316 µM, first compound 0.0316 µM
[2] = second compound 0.0316 µM, first compound 0.1 µM
[3] = second compound 0.1 µM, first compound 0.0316 µM
[4] = second compound 0.1 µM, first compound 0.1 µM
[5] = second compound 0.316 µM, first compound 0.0316 µM
[6] = second compound 0.316 µM, first compound 0.1 µM
[7] = second compound 1 µM, first compound 0.0316 µM
[8] = second compound 1 µM, first compound 0.1 µM
[9] = second compound 3.16 µM, first compound 0.0316 µM
[10] = second compound 3.16 µM, first compound 0.1 µM
[11] = second compound 10 µM, first compound 0.0316 µM
[12] = second compound 10 µM, first compound 0.1 µM
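Also: compound exposure lasted seven days before readout.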
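For viability, T/C in this document: 100% = DMSO vehicle control wells.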

CC(C)CC(NC(=O)C(Cc1ccccc1)NC(=O)c1cnccn1)B(O)O (stereo unspecified) + CNC(=O)c1ccc(Nc2nc(OC3CCCC3)c3c(-c4ccc5nc(C)oc5c4)c[nH]c3n2)c(OC)c1
8.75: pIC50 (second compound 0.1 µM)
inactive: viability, T/C (second compound 0.0316 µM, first compound 0.000949 µM) 112% | viability, T/C (second compound 0.0316 µM, first compound 0.003 µM) 60.9% | viability, T/C (second compound 0.1 µM, first compound 0.000949 µM) 77.7% | viability, T/C (second compound 0.1 µM, first compound 0.003 µM) 27.6% | viability, T/C (second compound 0.316 µM, first compound 0.000949 µM) 52.8% | viability, T/C (second compound 0.316 µM, first compound 0.003 µM) 13.1% | viability, T/C (second compound 1 µM, first compound 0.000949 µM) 36.5% | viability, T/C (second compound 3.16 µM, first compound 0.000949 µM) 33.3% | viability, T/C (second compound 10 µM, first compound 0.000949 µM) 40.4%
active: viability, T/C (second compound 0.0316 µM, first compound 0.00949 µM) 4.41% | viability, T/C (second compound 0.0316 µM, first compound 0.03 µM) 2.07% | viability, T/C (second compound 0.0316 µM, first compound 0.0949 µM) 3.06% | viability, T/C (second compound 0.0316 µM, first compound 0.3 µM) 2.24% | viability, T/C (second compound 0.1 µM, first compound 0.00949 µM) 3.68% | viability, T/C (second compound 0.1 µM, first compound 0.03 µM) 1.91% | viability, T/C (second compound 0.1 µM, first compound 0.0949 µM) 2.97% | viability, T/C (second compound 0.1 µM, first compound 0.3 µM) 2.4% | viability, T/C (second compound 0.316 µM, first compound 0.00949 µM) 2.31% | viability, T/C (second compound 0.316 µM, first compound 0.03 µM) 2.27% | viability, T/C (second compound 0.316 µM, first compound 0.0949 µM) 1.45% | viability, T/C (second compound 0.316 µM, first compound 0.3 µM) 0.89% | viability, T/C (second compound 1 µM, first compound 0.003 µM) 3.94% | viability, T/C (second compound 1 µM, first compound 0.00949 µM) 2.3% | viability, T/C (second compound 1 µM, first compound 0.03 µM) 2.6% | viability, T/C (second compound 1 µM, first compound 0.0949 µM) 4.22% | viability, T/C (second compound 1 µM, first compound 0.3 µM) 2.48% | viability, T/C (second compound 3.16 µM, first compound 0.003 µM) 2.4% | viability, T/C (second compound 3.16 µM, first compound 0.00949 µM) 0.9% | viability, T/C (second compound 3.16 µM, first compound 0.03 µM) 2.14% | viability, T/C (second compound 3.16 µM, first compound 0.0949 µM) 2.81% | viability, T/C (second compound 3.16 µM, first compound 0.3 µM) 0.81% | viability, T/C (second compound 10 µM, first compound 0.003 µM) 2.71% | viability, T/C (second compound 10 µM, first compound 0.00949 µM) 1.47% | viability, T/C (second compound 10 µM, first compound 0.03 µM) 4.33% | viability, T/C (second compound 10 µM, first compound 0.0949 µM) 2.67% | viability, T/C (second compound 10 µM, first compound 0.3 µM) 1.5%
8.99: pIC50 (second compound 0.316 µM)
8.43: pIC50 (second compound 0.0316 µM)
> 9.02: pIC50 (second compound 1 µM) | pIC50 (second compound 3.16 µM) | pIC50 (second compound 10 µM)

Cn1ncnc1[C@H]1c2n[nH]c(=O)c3cc(F)cc(c23)N[C@@H]1c1ccc(F)cc1 + CNC(=O)c1ccc(Nc2nc(OC3CCCC3)c3c(-c4ccc5nc(C)oc5c4)c[nH]c3n2)c(OC)c1
inactive: viability, T/C (second compound 0.0316 µM, first compound 0.000316 µM) 94.7% | viability, T/C (second compound 0.0316 µM, first compound 0.001 µM) 103% | viability, T/C (second compound 0.0316 µM, first compound 0.00316 µM) 107% | viability, T/C (second compound 0.0316 µM, first compound 0.01 µM) 105% | viability, T/C [1] 107% | viability, T/C [2] 113% | viability, T/C (second compound 0.1 µM, first compound 0.000316 µM) 63.8% | viability, T/C (second compound 0.1 µM, first compound 0.001 µM) 61.7% | viability, T/C (second compound 0.1 µM, first compound 0.00316 µM) 66.6% | viability, T/C (second compound 0.1 µM, first compound 0.01 µM) 62.3% | viability, T/C [3] 69.9% | viability, T/C [4] 68.5% | viability, T/C (second compound 0.316 µM, first compound 0.000316 µM) 36.9% | viability, T/C (second compound 0.316 µM, first compound 0.001 µM) 42.5% | viability, T/C (second compound 0.316 µM, first compound 0.00316 µM) 46.3% | viability, T/C (second compound 0.316 µM, first compound 0.01 µM) 46.2% | viability, T/C [5] 49.4% | viability, T/C [6] 48.6% | viability, T/C (second compound 1 µM, first compound 0.000316 µM) 27% | viability, T/C (second compound 1 µM, first compound 0.001 µM) 31.4% | viability, T/C (second compound 1 µM, first compound 0.00316 µM) 31.4% | viability, T/C (second compound 1 µM, first compound 0.01 µM) 33.2% | viability, T/C [7] 40% | viability, T/C [8] 30.2% | viability, T/C (second compound 3.16 µM, first compound 0.000316 µM) 27.1% | viability, T/C (second compound 3.16 µM, first compound 0.001 µM) 27.8% | viability, T/C (second compound 3.16 µM, first compound 0.00316 µM) 31.1% | viability, T/C (second compound 3.16 µM, first compound 0.01 µM) 30.9% | viability, T/C [9] 33% | viability, T/C [10] 30.7% | viability, T/C (second compound 10 µM, first compound 0.000316 µM) 30.3% | viability, T/C (second compound 10 µM, first compound 0.001 µM) 29.3% | viability, T/C (second compound 10 µM, first compound 0.00316 µM) 31.9% | viability, T/C (second compound 10 µM, first compound 0.01 µM) 30.9% | viability, T/C [11] 36.2% | viability, T/C [12] 32.3%
> 9.50: pIC50 (second compound 0.316 µM) | pIC50 (second compound 1 µM) | pIC50 (second compound 3.16 µM) | pIC50 (second compound 10 µM)
< 7.00: pIC50 (second compound 0.0316 µM) | pIC50 (second compound 0.1 µM)

O=C(c1cc(Cc2n[nH]c(=O)c3ccccc23)ccc1F)N1CCN(C(=O)C2CC2)CC1 + CNC(=O)c1ccc(Nc2nc(OC3CCCC3)c3c(-c4ccc5nc(C)oc5c4)c[nH]c3n2)c(OC)c1
< 5.00: pIC50 (second compound 0.0316 µM) | pIC50 (second compound 0.1 µM) | pIC50 (second compound 0.316 µM)
inactive: viability, T/C [1] 129% | viability, T/C [2] 119% | viability, T/C (second compound 0.0316 µM, first compound 0.316 µM) 113% | viability, T/C (second compound 0.0316 µM, first compound 1 µM) 109% | viability, T/C (second compound 0.0316 µM, first compound 3.16 µM) 115% | viability, T/C (second compound 0.0316 µM, first compound 10 µM) 120% | viability, T/C [3] 88.7% | viability, T/C [4] 81.7% | viability, T/C (second compound 0.1 µM, first compound 0.316 µM) 88.3% | viability, T/C (second compound 0.1 µM, first compound 1 µM) 81.2% | viability, T/C (second compound 0.1 µM, first compound 3.16 µM) 83.1% | viability, T/C (second compound 0.1 µM, first compound 10 µM) 84.1% | viability, T/C [5] 55.8% | viability, T/C [6] 52.3% | viability, T/C (second compound 0.316 µM, first compound 0.316 µM) 55.4% | viability, T/C (second compound 0.316 µM, first compound 1 µM) 56.7% | viability, T/C (second compound 0.316 µM, first compound 3.16 µM) 57.3% | viability, T/C (second compound 0.316 µM, first compound 10 µM) 57.6% | viability, T/C [7] 39.5% | viability, T/C [8] 39.7% | viability, T/C (second compound 1 µM, first compound 0.316 µM) 41.7% | viability, T/C (second compound 1 µM, first compound 1 µM) 37.7% | viability, T/C (second compound 1 µM, first compound 3.16 µM) 41.8% | viability, T/C (second compound 1 µM, first compound 10 µM) 43.9% | viability, T/C [9] 36.8% | viability, T/C [10] 36.6% | viability, T/C (second compound 3.16 µM, first compound 0.316 µM) 34.9% | viability, T/C (second compound 3.16 µM, first compound 1 µM) 36.7% | viability, T/C (second compound 3.16 µM, first compound 3.16 µM) 38.1% | viability, T/C (second compound 3.16 µM, first compound 10 µM) 39.6% | viability, T/C [11] 37.7% | viability, T/C [12] 37.5% | viability, T/C (second compound 10 µM, first compound 0.316 µM) 37.9% | viability, T/C (second compound 10 µM, first compound 1 µM) 36.5% | viability, T/C (second compound 10 µM, first compound 3.16 µM) 39.9% | viability, T/C (second compound 10 µM, first compound 10 µM) 35.5%
> 7.50: pIC50 (second compound 1 µM) | pIC50 (second compound 3.16 µM) | pIC50 (second compound 10 µM)
